The record followed here is patent publication US8815321B2, “Geranylamine derivatives as flavouring agents” (Givaudan S.A., priority 2009, dated 2014).

Common to all, as to format: in vivo, human
Test [1] has as its system umami-taste. The test is described as follows: Sensory panel tasting of 0.3% NaCl solution. The note with it: Solution B: 0.3% NaCl and 10 ppm geranyl lactamide; trained sensory panel of 20 women; Solution A (0.3% NaCl only): salty. As for the experimental part: Two solutions were prepared: A a solution of 0.3% NaCl B a solution of 0.3% NaCl and 10 ppm geranyl lactamide The samples were tasted by a trained sensory panel composed of 20 women aged between 30 and 60.

Test [2] deals with umami-taste. The test is described as follows: Flavourist tasting of tomato ketchup. The note with it: tomato ketchup with 20 ppm geranyl lactamide; flavourists (2 male, 2 female). How it is done: A tomato ketchup was prepared from 19% tomato paste (28-30% dry weight), 8% of vinegar (15%), 3% of sodium chloride, 20% of sugar and 50% of water. To one half of the batch was added 20 ppm of geranyl lactamide.

Test [3] deals with umami-taste. The test is described as follows: Sensory panel tasting of 0.3% NaCl and 0.03% MSG solution. The note with it: Solution B: 0.3% NaCl, 0.03% MSG and 10 ppm geranyl lactamide, trained sensory panel of 20 women, Solution A without compound: salty. As for the experimental part:
Two solutions were prepared: A a solution of 0.3% NaCl and 0.03% MSG B a solution of 0.3% NaCl, 0.03% MSG and 10 ppm geranyl lactamide The samples were tasted by a trained sensory panel composed of 20 women aged between 30 and 60.

Test [4] relates to umami-taste. The test is described as follows: Sensory panel tasting of flavoured potato chips. The note with it: for taste description of potato chips: trained sensory panel of 20 women. How it is done:
Plain potato chips were prepared. One part was flavoured with 1.2% sodium chloride (sample A) One part was flavoured with 1.2% sodium chloride and 0.3% mono sodium glutamate (sample b) One part was flavoured with 1.2% sodium chloride and 25 ppm geranyl lactamide (sample C). The samples were tasted by a trained sensory panel composed of 20 women aged between 30 and 60.

The test system of test [5] is umami-taste. The test is described as follows: Flavourist tasting of tomato soup. The note with it: tomato soup containing 15 ppm geranyl lactamide; flavourists (2 male, 2 female). How it is done:
A tomato soup mix was prepared from 9.4 g of sodium chloride, 1 g of mono sodium glutamate, 0.08 g ribonucleotides (ex yeast), 32 g of tomato powder (ex […]), 25.1 g of glucose, 21 g of starch (Ultrasperse 5 ex National Starch), 5 g of palm fat powder, 3 g of yeast powder, 1 g of onion powder, 0.15 g of carrot powder, 0.05 g of ground white pepper, 0.3 g of celery extract powder, 0.05 g of ground laurel leaf powder, and 1.85 g of sucrose. 25 G of the well mixed ingredients was added to 250 g of boiling water and stirred until completely dissolved. The reference soup was compared with a batch of the same soup containing 15 ppm of geranyl lactamide.

Consider `CC(C)=CCC/C(C)=C/CNC(=O)C(C)O` (stereo not shown) [geranyl lactamide], for which the “taste description (findings of the panel)” value with umami-taste [1] is “salty, umami”; in the test on umami-taste [3] it was “salty, umami, more bouillon-like, more complex, less sweet”. Besides, the “taste of test ketchup compared with base ketchup” value in the test on umami-taste [2] is “clearly more umami, more salty and had a pleasant savoury note”. In addition, the “panel preference among potato chip samples” value with umami-taste [4] (sample C (1.2% sodium chloride and 25 ppm geranyl lactamide) vs sample A (NaCl) and sample B (NaCl and 0.3% MSG)) is reported as “preferred over the other two samples”. Also, in the test with umami-taste [4] (sample C: 1.2% sodium chloride and 25 ppm geranyl lactamide), the “taste description of potato chips” value is reported as “salty, umami, long lasting, savoury, bouillon”. Further, the “taste of test soup compared with reference soup” value with umami-taste [5] is “more umami, had a long-lasting savoury aspect, was more salty and was more complex than the base soup”.
Turning to `N[C@@H](CCC(=O)O)C(=O)[O-].[Na+]` [mono sodium glutamate, reference compound], the “taste description of potato chips” value in the test with umami-taste [4] (sample B: 1.2% sodium chloride and 0.3% mono sodium glutamate) is “salty and umami”.
